Molecules are shown by their SMILES. *1 amine or outer side, *2 acyl side, *3 side chain or, on linkers, in order; H or OH if unused. Where a SMILES comes first, the peptide text is derived from it. Bridges are numbered along the chain shown (N, C = ends). Side-chain parts run from the residue outwards. [ ]: non-standard residue; d: D form. The star is where a group is joined. NH(1-deoxy-D-glucityl) = OC[C@@H](O)[C@@H](O)[C@H](O)[C@@H](O)CN*; X21 = O=C(CCP(=O)(O)CN1CCN(CP(=O)(O)CO)CCN(CP(=O)(O)CO)CC1)*; DOTA = O=C(O)CN1CCN(CC(=O)O)CCN(CC(=O)*)CCN(CC(=O)O)CC1; X9 = O=C(O)CN1CCN(CC(=O)O)CCN([C@H](CCC(=O)*)C(=O)O)CC1; Trp(5-Cl) = N[C@@H](Cc1c[nH]c2ccc(Cl)cc12)C(=O)O; Pyridine(2,6-diCH2) = c1cc(C[*:1])nc(C[*:2])c1; Pro(4R-NH2) = N[C@H]1CN[C@H](C(=O)O)C1; Glutaryl = O=C(CCCC(=O)[*:2])[*:1]; X1 = O=C(CN1CCC(N[*:1])CC1)[*:2]; X30 = NCCNCC(CNCCN)C(=O)*; dDab = NCC[C@@H](N)C(=O)O; Api = NC1(C(=O)O)CCNCC1; Dab = NCC[C@H](N)C(=O)O

From patent US20250296971A1, “GASTRIC INHIBITORY PEPTIDE RECEPTOR LIGANDS” (priority 2021, published 2025) come the findings set out here.

For the first test, the target named is T1, GIPR (CHO-K1-hGIPR cells) (Homo sapiens, UniProt P48546).
T1 construct: host or cells: CHO-K1
T1 sequence (P48546 22-466): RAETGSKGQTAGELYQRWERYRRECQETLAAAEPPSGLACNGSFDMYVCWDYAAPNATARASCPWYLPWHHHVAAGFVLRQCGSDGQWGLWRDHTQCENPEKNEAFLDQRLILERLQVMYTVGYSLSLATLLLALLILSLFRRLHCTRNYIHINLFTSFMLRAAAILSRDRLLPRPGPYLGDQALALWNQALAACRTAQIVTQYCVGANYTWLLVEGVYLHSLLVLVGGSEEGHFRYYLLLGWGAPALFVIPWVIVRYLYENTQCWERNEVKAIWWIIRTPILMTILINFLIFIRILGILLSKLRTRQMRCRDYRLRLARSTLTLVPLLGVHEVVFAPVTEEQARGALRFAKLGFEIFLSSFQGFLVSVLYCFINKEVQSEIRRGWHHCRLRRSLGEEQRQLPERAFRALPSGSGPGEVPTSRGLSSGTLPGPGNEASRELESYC
Nature of the test: FACS binding assay. The conditions noted are these: competition with 20 nM GIP-057, 4° C., 1 hour, read-out: pIC50 Category (converted). As to the method:
In order to determine binding of compounds according to the present invention to GIPR-expressing cells, a FACS binding assay was established.
CHO-K1-hGIPR cells (GenScript Biotech, #M00486) were cultured in Ham's F12 medium (Sigma-Aldrich, #N4888) including 10% fetal calf serum (FCS), 2 mM L-glutamine, 100 U/mL penicillin, 100 μg/mL streptomycin, 200 μg/mL Zeocin and 100 μg/mL HygromycinB. Cells were detached with Accutase (Biolegend, #BLD-423201) and washed in FACS buffer (PBS including 1% FCS). Cells were diluted in FACS buffer to a final concentration of 500.000 cells per mL. 200 μL of the cell suspension were transferred to a u-shaped non-binding 96-well plate (Greiner) and cells were washed in ice-cold FACS buffer.
Cells were washed twice in FACS buffer. An additional incubation step with 1 μg/mL APC-Streptavidin (Miltenyi; #130-106-791) in 50 μL FACS buffer for 30 min on ice was performed followed by two washes with FACS buffer.
Cells were analyzed in an Attune NxT flow cytometer. Median fluorescence intensities (MFI) of the APC/Cy5-channel were calculated by Attune NxT software. MFI values were plotted against peptide concentration and four parameter logistic (4PL) curve fitting and EC50/pEC50 or IC50/pIC50 calculations were performed using ActivityBase software.
In general terms: Flow cytometry measures light scatter and fluorescence of single cells or particles in a stream.
Take `CC[C@H](C)[C@@H]1NC(=O)[C@H](CC(C)C)NC(=O)[C@@H](CCCCNC(=O)CN2CCN(CC(=O)O)CCN(CC(=O)O)CCN(CC(=O)O)CC2)NC(=O)[C@@H](NC(=O)[C@@H](CC(C)C)NC(=O)[C@H](CCC(=O)O)NC(=O)[C@@H]2C[C@@H](N)CN2C(=O)[C@H](Cc2c[nH]c3ccc(Cl)cc23)NC(=O)[C@H](Cc2c[nH]c3ccccc23)NC(=O)[C@H](CC(=O)O)NC(=O)CCCC(=O)NC[C@H](O)[C@@H](O)[C@H](O)[C@H](O)CO)CSCc2cccc(n2)CSC[C@@H](C(=O)NC2CCN(CC(=O)N[C@H](CCC(=O)NC[C@H](O)[C@@H](O)[C@H](O)[C@H](O)CO)C(N)=O)CC2)NC1=O` [GIP-025, AGLU-Glutar-Asp-Trp-5Clw-Tap-Glu-leu-[Cys(2Lut)-lys(DOTA)-Leu-Ile-Cys]-APAc-glu(AGLU)-NH2] ({NH(1-deoxy-D-glucityl)-Glutaryl}-DW[Trp(5-Cl)][Pro(4R-NH2)]E[dL]C[dK](DOTA)LIC[X1][dE](NH(1-deoxy-D-glucityl))-NH2; linker 7-11 via Pyridine(2,6-diCH2)): the IC50 was 10 to 79.4 nM.
Still for that read-out and setting: the value for `CC[C@H](C)[C@@H]1NC(=O)[C@H](CC(C)C)NC(=O)[C@H](CCNC(=O)CN2CCN(CC(=O)O)CCN(CC(=O)O)CCN(CC(=O)O)CC2)NC(=O)[C@@H](NC(=O)[C@@H](CC(C)C)NC(=O)[C@H](CCC(=O)O)NC(=O)[C@@H]2C[C@@H](N)CN2C(=O)[C@H](Cc2c[nH]c3ccc(Cl)cc23)NC(=O)[C@H](Cc2c[nH]c3ccccc23)NC(=O)[C@H](CC(=O)O)NC(=O)CCCC(=O)NC[C@H](O)[C@@H](O)[C@H](O)[C@H](O)CO)CSCc2cccc(n2)CSC[C@@H](C(=O)NC2CCN(CC(=O)N[C@H](CCC(=O)NC[C@H](O)[C@@H](O)[C@H](O)[C@H](O)CO)C(N)=O)CC2)NC1=O` [GIP-026, AGLU-Glutar-Asp-Trp-5Clw-Tap-Glu-leu-[Cys(2Lut)-Dab(DOTA)-Leu-Ile-Cys]-APAc-glu(AGLU)-NH2] ({NH(1-deoxy-D-glucityl)-Glutaryl}-DW[Trp(5-Cl)][Pro(4R-NH2)]E[dL]C[Dab](DOTA)LIC[X1][dE](NH(1-deoxy-D-glucityl))-NH2; linker 7-11 via Pyridine(2,6-diCH2)) was < 10 nM; that for `CC[C@H](C)[C@@H]1NC(=O)[C@H](CC(C)C)NC(=O)[C@@H](CCNC(=O)CN2CCN(CC(=O)O)CCN(CC(=O)O)CCN(CC(=O)O)CC2)NC(=O)[C@@H](NC(=O)[C@@H](CC(C)C)NC(=O)[C@H](CCC(=O)O)NC(=O)[C@@H]2C[C@@H](N)CN2C(=O)[C@H](Cc2c[nH]c3ccc(Cl)cc23)NC(=O)[C@H](Cc2c[nH]c3ccccc23)NC(=O)[C@H](CC(=O)O)NC(=O)CCCC(=O)NC[C@H](O)[C@@H](O)[C@H](O)[C@H](O)CO)CSCc2cccc(n2)CSC[C@@H](C(=O)NC2CCN(CC(=O)N[C@H](CCC(=O)NC[C@H](O)[C@@H](O)[C@H](O)[C@H](O)CO)C(N)=O)CC2)NC1=O` [GIP-027, AGLU-Glutar-Asp-Trp-5Clw-Tap-Glu-leu-[Cys(2Lut)-dab(DOTA)-Leu-Ile-Cys]-APAc-glu(AGLU)-NH2] ({NH(1-deoxy-D-glucityl)-Glutaryl}-DW[Trp(5-Cl)][Pro(4R-NH2)]E[dL]C[dDab](DOTA)LIC[X1][dE](NH(1-deoxy-D-glucityl))-NH2; linker 7-11 via Pyridine(2,6-diCH2)) was 10 to 79.4 nM; that for `CC[C@H](C)[C@@H]1NC(=O)[C@H](CC(C)C)NC(=O)C2(CCN(C(=O)CC[C@H](C(=O)O)N3CCN(CC(=O)O)CCN(CC(=O)O)CC3)CC2)NC(=O)[C@@H](NC(=O)[C@@H](CC(C)C)NC(=O)[C@H](CCC(=O)O)NC(=O)[C@@H]2C[C@@H](N)CN2C(=O)[C@H](Cc2c[nH]c3ccc(Cl)cc23)NC(=O)[C@H](Cc2c[nH]c3ccccc23)NC(=O)[C@H](CC(=O)O)NC(=O)CCCC(=O)NC[C@H](O)[C@@H](O)[C@H](O)[C@H](O)CO)CSCc2cccc(n2)CSC[C@@H](C(=O)NC2CCN(CC(=O)N[C@H](CCC(=O)NC[C@H](O)[C@@H](O)[C@H](O)[C@H](O)CO)C(N)=O)CC2)NC1=O` [GIP-028, AGLU-Glutar-Asp-Trp-5Clw-Tap-Glu-leu-[Cys(2Lut)-Apc(NODAGA)-Leu-Ile-Cys]-APAc-glu(AGLU)-NH2] ({NH(1-deoxy-D-glucityl)-Glutaryl}-DW[Trp(5-Cl)][Pro(4R-NH2)]E[dL]C[Api](X9)LIC[X1][dE](NH(1-deoxy-D-glucityl))-NH2; linker 7-11 via Pyridine(2,6-diCH2)) was < 10 nM.
`CC[C@H](C)[C@@H]1NC(=O)[C@H](CC(C)C)NC(=O)C2(CCN(C(=O)C(CNCCN)CNCCN)CC2)NC(=O)[C@@H](NC(=O)[C@@H](CC(C)C)NC(=O)[C@H](CCC(=O)O)NC(=O)[C@@H]2C[C@@H](N)CN2C(=O)[C@H](Cc2c[nH]c3ccc(Cl)cc23)NC(=O)[C@H](Cc2c[nH]c3ccccc23)NC(=O)[C@H](CC(=O)O)NC(=O)CCCC(=O)NC[C@H](O)[C@@H](O)[C@H](O)[C@H](O)CO)CSCc2cccc(n2)CSC[C@@H](C(=O)NC2CCN(CC(=O)N[C@H](CCC(=O)NC[C@H](O)[C@@H](O)[C@H](O)[C@H](O)CO)C(N)=O)CC2)NC1=O` [GIP-030, AGLU-Glutar-Asp-Trp-5Clw-Tap-Glu-leu-[Cys(2Lut)-Apc(N4Ac)-Leu-Ile-Cys]-APAc-glu(AGLU)-NH2] ({NH(1-deoxy-D-glucityl)-Glutaryl}-DW[Trp(5-Cl)][Pro(4R-NH2)]E[dL]C[Api](X30)LIC[X1][dE](NH(1-deoxy-D-glucityl))-NH2; linker 7-11 via Pyridine(2,6-diCH2)): the IC50 was < 10 nM.
Regarding `CC[C@H](C)[C@@H]1NC(=O)[C@H](CC(C)C)NC(=O)C2(CCN(C(=O)CNC(=O)CC[C@H](C(=O)O)N3CCN(CC(=O)O)CCN(CC(=O)O)CC3)CC2)NC(=O)[C@@H](NC(=O)[C@@H](CC(C)C)NC(=O)[C@H](CCC(=O)O)NC(=O)[C@@H]2C[C@@H](N)CN2C(=O)[C@H](Cc2c[nH]c3ccc(Cl)cc23)NC(=O)[C@H](Cc2c[nH]c3ccccc23)NC(=O)[C@H](CC(=O)O)NC(=O)CCCC(=O)NC[C@H](O)[C@@H](O)[C@H](O)[C@H](O)CO)CSCc2cccc(n2)CSC[C@@H](C(=O)NC2CCN(CC(=O)N[C@H](CCC(=O)NC[C@H](O)[C@@H](O)[C@H](O)[C@H](O)CO)C(N)=O)CC2)NC1=O` [GIP-031, AGLU-Glutar-Asp-Trp-5Clw-Tap-Glu-leu-[Cys(2Lut)-Apc(NODAGA-Gly)-Leu-Ile-Cys]-APAc-glu(AGLU)-NH2] ({NH(1-deoxy-D-glucityl)-Glutaryl}-DW[Trp(5-Cl)][Pro(4R-NH2)]E[dL]C[Api]([Gly-X9])LIC[X1][dE](NH(1-deoxy-D-glucityl))-NH2; linker 7-11 via Pyridine(2,6-diCH2)), the IC50 was < 10 nM.
On the same count and under the same terms, the figure for `CC[C@H](C)[C@@H]1NC(=O)[C@H](CC(C)C)NC(=O)C2(CCN(C(=O)CN3CCN(CC(=O)O)CCN(CC(=O)O)CCN(CC(=O)O)CC3)CC2)NC(=O)[C@@H](NC(=O)[C@@H](CC(C)C)NC(=O)[C@H](CCC(=O)O)NC(=O)[C@@H]2C[C@@H](N)CN2C(=O)[C@H](Cc2c[nH]c3ccc(Cl)cc23)NC(=O)[C@H](Cc2c[nH]c3ccccc23)NC(=O)[C@H](CC(=O)O)NC(=O)CN2CCC(NC(=O)CCCC(=O)NC[C@H](O)[C@@H](O)[C@H](O)[C@H](O)CO)CC2)CSCc2cccc(n2)CSC[C@@H](C(=O)N[C@H](CCC(=O)NC[C@H](O)[C@@H](O)[C@H](O)[C@H](O)CO)C(N)=O)NC1=O` [GIP-033, AGLU-Glutar-APAc-Asp-Trp-5Clw-Hyp-Glu-leu-[Cys(2Lut)-Apc(DOTA)-Leu-Ile-Cys]-glu(AGLU)-NH2] ({NH(1-deoxy-D-glucityl)-Glutaryl}-[X1]DW[Trp(5-Cl)][Pro(4R-NH2)]E[dL]C[Api](DOTA)LIC[dE](NH(1-deoxy-D-glucityl))-NH2; linker 8-12 via Pyridine(2,6-diCH2)) is < 10 nM.

The same test, now with this note: pIC50 Category, competition with 20 nM GIP-057, 4° C., 1 hour.
In the case of `CC[C@H](C)[C@@H]1NC(=O)[C@H](CC(C)C)NC(=O)C2(CCN(C(=O)CCP(=O)(O)CN3CCN(CP(=O)(O)CO)CCN(CP(=O)(O)CO)CC3)CC2)NC(=O)[C@@H](NC(=O)[C@@H](CC(C)C)NC(=O)[C@H](CCC(=O)O)NC(=O)[C@@H]2C[C@@H](N)CN2C(=O)[C@H](Cc2c[nH]c3ccc(Cl)cc23)NC(=O)[C@H](Cc2c[nH]c3ccccc23)NC(=O)[C@H](CC(=O)O)NC(=O)CCCC(=O)NC[C@H](O)[C@@H](O)[C@H](O)[C@H](O)CO)CSCc2cccc(n2)CSC[C@@H](C(=O)NC2CCN(CC(=O)N[C@H](CCC(=O)NC[C@H](O)[C@@H](O)[C@H](O)[C@H](O)CO)C(N)=O)CC2)NC1=O` [GIP-029, AGLU-Glutar-Asp-Trp-5Clw-Tap-Glu-leu-[Cys(2Lut)-Apc(NOPO)-Leu-Ile-Cys]-APAc-glu(AGLU)-NH2] ({NH(1-deoxy-D-glucityl)-Glutaryl}-DW[Trp(5-Cl)][Pro(4R-NH2)]E[dL]C[Api](X21)LIC[X1][dE](NH(1-deoxy-D-glucityl))-NH2; linker 7-11 via Pyridine(2,6-diCH2)), the IC50 is < 10 nM.
